Laboratory results reported in US6392055B1, “Synthesis and biological evaluation of analogs of the antimitotic marine natural product curacin A” (The University of Pittsburgh, priority 2000, dated 2002).
Read-outs that look alike come from different tables or passages of the source.

Columns and labels:
MDA-MB231 cells = test: Growth inhibition of breast carcinoma cells (MTS); assay type: cell-based, human
[1] = test system: isolated bovine brain tubulin; test: Inhibition of GTP/glutamate-induced tubulin polymerization (turbidimetric, 30° C.); assay type: biochemical
PC-3 cells = test: Growth inhibition of prostate carcinoma cells (MTS); assay type: cell-based, human
[2] = molecular target: tubulin (colchicine site); test: Inhibition of [3H]colchicine binding to tubulin; design: species or system bovine; conditions: for IC50: 5 μM [3H]colchicine, 1 μM tubulin; for % CBI 5 μM, (30° C.) / % CBI 50 μM, (30° C.): 30° C. (values in parentheses); for displacement of pre-bound [3H]colchicine from tubulin, 30° C. / displacement of pre-bound [3H]colchicine from tubulin, 37° C.: equimolar (5 μM) concentration
Procedure: Assays to determine whether 15mix-17mix inhibited binding of [^3H]colchicine to tubulin at both 30° C. and 37° C. were performed. This was accomplished using methods described previously. Kang, G.-J.; Getahun, Z.; Muzaffar, A.; Brossi, A.; Hamel, E. J. Biol. Chem. 1990, 265, 10255; Verdier-Pinard, P.; Lai, J.-Y.; Yoo, H.-D.; Yu, J.; Marquez, B.; Nagle, D. G.; Nambu, M.; White, J. D.; Falck, J. R.; Gerwick, W. H.; Day, B. W.; Hamel, E. Mol. Pharmacol. 1998, 53, 62. Briefly, 5 μM [^3H]colchicine (2.3 TBq/mmol), drug (1, 5, 10, 50, or 250 μM), or vehicle (DMSO, 5% v/v) were incubated at 30° C. for 15 minutes or at 37° C. for 10 minutes with 1 μM tubulin in the presence of 1 M monosodium glutamate, 0.1 M glucose-1-phosphate, 1 mM MgCl2, 1 mM GTP, and 0.5 mg/mL bovine serum albumin. The solutions were filtered through two stacks of DEAE-cellulose filters and the radioactivity in the filtrate was determined by scintillation spectrometry. Each series of determinations included positive controls of 1, 5, and/or 50 μM curacin A.

2008 cells = test: Growth inhibition of ovarian carcinoma cells (MTS); assay type: cell-based, human
[3] = test system: MCF-7 human breast carcinoma cells; test: Mitotic index by immunofluorescence of phosphorylated core histone; assay type: cell-based; conditions: for concentration causing maximum mitotic block: 0.0075-15 μM
Procedure: Further verification of the biological activity of compounds 17a-e was obtained in living tumor cells by quantifying their effect on mitotic index, essentially, counting the number of cells in the mitotic phase of the cell cycle. Antimitotic compounds increase the mitotic index, which can be quantified immunohistochemically using an antibody to a mitosis-specific phosphorylated core histone protein. MCF-7 human breast carcinoma cells were treated with increasing concentrations of compounds 17a-e (7.8-1000 nM), curacin A (3.1-400 nM), and vinblastine (0.08-10 nM) for 14-16 hours. The morphology of the cellular nuclei and the mircrotubule cytoskeleton, as well as the phosphorylation of a core histone protein, were visualized using a multiparameter immunofluorescence approach. […] Compound 17b induced cell rounding and the generalized loss of structured microtubules in the same cells. The mitotic index in drug-treated cells was measured. To assess the relative activity of compounds 17a-e and two known microtubule disrupting drugs, vinblastine and curacin A, the minimum effective concentration of each drug was measured.
Phosphorylation of histone H3 occurs during mitosis and is linked to chromosome condensation. Thus, antimitotic agents cause an accumulation of cells containing […]. Wei, Y.; Mizzen, C. A.; Cook, R. G.; Gorovsky, M. A.; Allis, C. D. Proc. Natl Acad. Sci. USA 1998, 95, 7480. MCF-7 human breast carcinoma cells were treated with increasing concentrations (0.0075-15 μM) of 17mix and 17a-e for 14 hours and mitotic index quantities automatically. […] Vinblastine, a classic mitotic inhibitor, was tested over a range of 0.49 nM to 0.1 μM and caused a maximum accumulation of adherent cells in mitosis of 26%.

[4] = Homo sapiens, MDA-MB-231, 48 h, read-out: GI50 MDA-MB231 (48 h)
[5] = read-out: 50% Tubulin Polymerization Inhibition Concentration (TPI) IC50, 30° C., 10 μM tubulin
[6] = Homo sapiens, PC-3, 48 h, read-out: GI50 PC-3 (48 h)
[7] = incubation at 30° C. for 15 minutes, read-out: 50% Colchicine Binding Inhibitory Concentration (CBI), 30° C.
[8] = incubation at 37° C. for 10 minutes, read-out: 50% Colchicine Binding Inhibitory Concentration (CBI), 37° C.
[9] = Homo sapiens, Ovarian carcinoma cell, 48 h, read-out: GI50 2008 (48 h)
[10] = 96 h, read-out: GI50 MDA-MB231 (breast) 96 h
[11] = read-out: GI50 MDA-MB231 (breast) 48 h, 48 h
[12] = 96 h, read-out: GI50 PC3 (prostate) 96 h
[13] = read-out: GI50 PC3 (prostate) 48 h, 48 h
[14] = 96 h, read-out: GI50 2008 (ovarian) 96 h
[15] = read-out: GI50 2008 (ovarian) 48 h, 48 h
[16] = read-out: GI50 breast (MDA-MB231), 48 hours of continuous drug exposure, 48 hours continuous exposure
[17] = 30° C. turbidimetric assay, N=2 over 4 concentrations, read-out: IC50, inhibition of GTP/glutamate-induced assembly of tubulin
[18] = read-out: GI50 prostate (PC3), 48 hours of continuous drug exposure, 48 hours continuous exposure
[19] = read-out: GI50 ovarian (2008), 48 hours of continuous drug exposure, 48 hours continuous exposure

Structure (SMILES) | GI50 (MDA-MB231 cells; [4]) | IC50 [1, 5] | GI50 (PC-3 cells; [6]) | IC50 [2, 7] | IC50 [2, 8] | GI50 (2008 cells; [9]) | GI50 (MDA-MB231 cells; [10]) | GI50 (MDA-MB231 cells; [11]) | % TPI 5 μM ([1]; 5 μM compound) | GI50 (PC-3 cells; [12]) | GI50 (PC-3 cells; [13]) | % CBI 5 μM, (30° C.) ([2]; 5 μM compound) | % CBI 5 μM, 37° C. ([2]; 5 μM compound) | % CBI 50 μM, (30° C.) ([2]; 50 μM compound) | % CBI 50 μM, 37° C. ([2]; 50 μM compound) | GI50 (2008 cells; [14]) | GI50 (2008 cells; [15]) | other results
COc1cc(/C=C\CC/C=C/C=C(\C)CCC(O)c2cc3ccccc3s2)cc(OC)c1OC (stereo not drawn) [Compound 17b, (4E,6E,10Z)-11-(3,4,5-Trimethoxyphenyl)-4-methyl-1-benzothiophen-2ylundeca-4,6,10-trien-1ol] | 230 ± 60 nM | 1400 nM | 620 ± 50 nM | 9000 ± 7000 nM | 19000 ± 2000 nM | 360 ± 1 nM | – | – | – | – | – | – | – | – | – | – | – | fraction of cells exhibiting condensed chromatin and increased core histone phosphorylation ([3]; 14-16 hours): large increase
COc1cc(/C=C\CC/C=C/C=C(\C)CCC(O)c2cccs2)cc(OC)c1OC (stereo not drawn) [Compound 17c, (4E,6E,10Z)-11-(3,4,5-Trimethoxyphenyl)-4-methyl-1-thiophen-2-ylundeca-4,6,10-trien-1-ol] | 280 ± 40 nM | 1200 nM | 380 ± 80 nM | 39000 ± 10000 nM | 9000 ± 3000 nM | 280 ± 20 nM | – | – | – | – | – | – | – | – | – | – | – | concentration causing maximum mitotic block ([3]; 14 hours): sub-micromolar
COc1cc(/C=C\CC/C=C/C=C(\C)CCC(O)c2cc3ccccc3o2)cc(OC)c1OC (stereo not drawn) [Compound 17e, (4E,6E,10Z)-11-(3,4,5-Trimethoxyphenyl)-4-methyl-1-benzofuran-2-ylundeca-4,6,10-trien-1-ol] | 120 ± 70 nM | 1600 nM | 310 ± 200 nM | 9000 ± 4000 nM | 28000 ± 8000 nM | 270 ± 50 nM | – | – | – | – | – | – | – | – | – | – | – | concentration causing maximum mitotic block ([3]; 14 hours): sub-micromolar
C=CC[C@@H](CC/C(C)=C/C=C/CC/C=C\c1csc(C(C)(C)C)n1)OC [JRC4] | – | – | – | – | – | – | 250 ± 20 nM | 320 ± 200 nM | 100% | 450 ± 90 nM | 240 ± 70 nM | (38 ± 2) % | −21 ± 16% | (43 ± 19) % | 5 ± 13% | 250 ± 50 nM | 300 ± 170 nM | –
C=CCC(CCC(C)=CC=CCCC=CC1COC(C=Cc2ccccc2)=N1)OC (stereo not drawn) [JRC5] | – | – | – | – | – | – | 5800 ± 3600 nM | 14000 ± 3000 nM | 29% | 28000 ± 1000 nM | 30000 ± 6000 nM | (9 ± 6) % | 1 ± 12% | (−220 ± 16) % | −89 ± 7% | 23000 ± 2000 nM | 17000 ± 3000 nM | –
C=CC[C@@H](CC[C@@]1(C)C[C@H]1[C@H]1C[C@@H]1CC/C=C\[C@@H]1COC([C@@H]2C[C@@H]2C)=N1)OC [JRCPOX] | – | – | – | – | – | – | 24000 nM | 18000 ± 4000 nM | 83% | 24000 ± 1000 nM | 49000 ± 1000 nM | (−142 ± 59) % | −8 ± 11% | (−205 ± 17) % | −74 ± 19% | 23000 ± 1000 nM | 18000 ± 4000 nM | –
COc1cc(/C=N\OC/C=C/C=C(\C)CCC(O)c2cccs2)cc(OC)c1OC (stereo not drawn) [JRoxime1] | – | – | – | – | – | – | 380 ± 200 nM | 120 ± 100 nM | 100% | 530 ± 390 nM | 250 nM | (48 ± 12) % | 53 ± 2.2% | (57 ± 15) % | 37 ± 8% | 340 ± 290 nM | 240 ± 180 nM | GI50 (MDA-MB231 cells; [16]): 120 ± 100 nM; IC50 [1, 17]: 170 ± 90 nM; GI50 (PC-3 cells; [18]): 250 ± 80 nM; displacement of pre-bound [3H]colchicine from tubulin, 30° C. [2]: 48±12%; displacement of pre-bound [3H]colchicine from tubulin, 37° C. [2]: 53±2%; GI50 (2008 cells; [19]): 240 ± 180 nM
COc1cc(C=NOCC2CC2CCC(C)c2cccs2)cc(OC)c1OC (stereo not drawn) [JRoxime3] | – | – | – | – | – | – | > 50000 nM | > 50000 nM | 3% | > 50000 nM | > 50000 nM | (−10 ± 10) % | −30 ± 6% | (18 ± 6) % | −30 ± 7% | > 50000 nM | > 50000 nM | –
CC[C@]1(O)C[C@@H]2CN(CCc3c([nH]c4ccccc34)[C@@](C(=O)OC)(c3cc4c(cc3OC)N(C)[C@H]3[C@@](O)(C(=O)OC)[C@H](OC(C)=O)[C@]5(CC)C=CCN6CC[C@]43[C@@H]65)C2)C1 [Vinblastine, vinblastine, reference compound] | – | – | – | – | – | – | – | – | – | – | – | – | – | – | – | – | – | maximum accumulation of adherent cells in mitosis ([3]; tested over 0.49 nM to 0.1 μM, 14 hours): 26%
C=CC[C@@H](CC/C(C)=C/C=C/CC/C=C\[C@@H]1CSC([C@@H]2C[C@@H]2C)=N1)OC [curacin A] | – | 780 ± 70 nM | – | 900 ± 300 nM | 600 ± 100 nM | – | – | – | 98% | – | – | (78 ± 2) % | 87 ± 9% | (99 ± 1) % | 97 ± 0% | – | – | GI50 (MDA-MB231 cells; 96 h, Table II prints no unit, read-out: GI50 MDA 96 h): 64 ± 7 nM; GI50 (MDA-MB231 cells; read-out: GI50 MDA 48 h, 48 h, Table II prints no unit): 186 ± 226 nM; GI50 (MDA-MB231 cells; read-out: GI50 MDA-MB231 (48 h), 48 h): 96 ± 60 nM; GI50 (MDA-MB231 cells; [16]): 96 ± 60 nM; Percent Tubulin Polymerization Inhibition (TPI), 5 μM ([1]; 5 μM compound): 97.9%; IC50 [1, 17]: 520 ± 210 nM; GI50 (PC-3 cells; 96 h, Table II prints no unit, read-out: GI50 PC3 96 h): 48 ± 8 nM; GI50 (PC-3 cells; read-out: GI50 PC3 48 h, 48 h, Table II prints no unit): 50 ± 9 nM; GI50 (PC-3 cells; read-out: GI50 PC-3 (48 h), 48 h): 50 ± 9 nM; GI50 (PC-3 cells; [18]): 50 ± 9 nM; Percent Colchicine Binding Inhibition (CBI), 5 μM ([2]; 5 μM compound): 84.9 ± 1.07 %; Percent Colchicine Binding Inhibition (CBI), 5 μM, re-test value ([2]; 5 μM compound, re-test (in parentheses)): (95.0 ± 0.7*) %; Percent Colchicine Binding Inhibition (CBI), 50 μM ([2]; 50 μM compound): 96.2 ± 0.7 %; Percent Colchicine Binding Inhibition (CBI), 50 μM, re-test value ([2]; 50 μM compound, re-test (in parentheses)): (97.7 ± 0.0*) %; displacement of pre-bound [3H]colchicine from tubulin, 30° C. [2]: 78±2%; displacement of pre-bound [3H]colchicine from tubulin, 37° C. [2]: 87±9%; GI50 (2008 cells; 96 h, Table II prints no unit, read-out: GI50 2008 96 h): 26 ± 12 nM; GI50 (2008 cells; read-out: GI50 2008 48 h, 48 h, Table II prints no unit): 35 ± 7 nM; GI50 (2008 cells; read-out: GI50 2008 (48 h), 48 h): 35 ± 7 nM; GI50 (2008 cells; [19]): 35 ± 7 nM
